Laboratory results as given in patent US20110190280A1, “Thiazole And Oxazole Kinase Inhibitors” (priority 2007, published 2011).

Assays:
[1] = test system: SK-MEL-28 tumor cells; experiment: Cell growth inhibition assay (CellTiter-Glo), SK-MEL-28; settings: Homo sapiens, SK-MEL-28, 72 h, read-out: Activity in SK-MEL-28 Tumor Cells;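 note: luminescent total ATP as a proxy for cell number, threefold serial dilutions at 0.2% DMSO, percent growth inhibition versus DMSO vehicle control wells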
[2] = test system: SK-MEL-3 tumor cells; experiment: Cell growth inhibition assay (CellTiter-Glo), SK-MEL-3; settings: Homo sapiens, SK-MEL3, 72 h, read-out: Activity in SK-MEL-3 Tumor Cells;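 note: human melanoma cells grown with compound for 3 days in 0.2% DMSO, total ATP read by luminescence as proxy for cell number, growth inhibition versus DMSO-treated wells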
[3] = target: B-Raf (Homo sapiens, UniProt P15056); experiment: B-Raf Accelerated MEK ATPase assay (BRAMA); format: biochemical; settings: BRAMA enzyme assay; class by pIC50; read-out: B-Raf Activity
Sequence of B-Raf (P15056 whole entry): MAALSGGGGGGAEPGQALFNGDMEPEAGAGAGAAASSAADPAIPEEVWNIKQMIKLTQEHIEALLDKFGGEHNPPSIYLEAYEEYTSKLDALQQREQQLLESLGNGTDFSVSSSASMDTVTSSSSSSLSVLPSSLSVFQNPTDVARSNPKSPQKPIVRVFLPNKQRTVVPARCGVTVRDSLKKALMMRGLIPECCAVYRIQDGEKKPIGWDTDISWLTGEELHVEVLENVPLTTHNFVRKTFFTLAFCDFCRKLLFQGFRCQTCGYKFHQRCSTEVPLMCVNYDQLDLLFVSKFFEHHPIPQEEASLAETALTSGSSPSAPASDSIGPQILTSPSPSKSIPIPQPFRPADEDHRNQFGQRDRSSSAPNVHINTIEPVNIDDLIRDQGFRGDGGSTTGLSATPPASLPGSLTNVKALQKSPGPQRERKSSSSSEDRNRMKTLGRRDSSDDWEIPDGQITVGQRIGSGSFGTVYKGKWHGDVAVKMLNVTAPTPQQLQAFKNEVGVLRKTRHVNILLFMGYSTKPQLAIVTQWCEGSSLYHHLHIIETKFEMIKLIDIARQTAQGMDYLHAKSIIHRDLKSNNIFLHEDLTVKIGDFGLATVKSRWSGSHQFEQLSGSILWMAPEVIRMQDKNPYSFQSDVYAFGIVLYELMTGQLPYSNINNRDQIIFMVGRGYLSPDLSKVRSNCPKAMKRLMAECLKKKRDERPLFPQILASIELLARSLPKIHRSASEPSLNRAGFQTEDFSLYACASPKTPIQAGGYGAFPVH
In short: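 B-Raf activity read as intrinsic MEK ATPase: catalytic activated RAF with non-phosphorylated MEK drives ADP formation, coupled through pyruvate kinase and lactate dehydrogenase to NADH oxidation, independent of ERK phosphorylation.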

[4] = target: ErbB2 (Homo sapiens, UniProt P04626); experiment: ErbB2 kinase autophosphorylation assay (peptide phosphorylation, HTRF); format: biochemical; settings: 10 nM ErbB2, HTRF; class by pIC50
Sequence of ErbB2 (P04626 23-1255): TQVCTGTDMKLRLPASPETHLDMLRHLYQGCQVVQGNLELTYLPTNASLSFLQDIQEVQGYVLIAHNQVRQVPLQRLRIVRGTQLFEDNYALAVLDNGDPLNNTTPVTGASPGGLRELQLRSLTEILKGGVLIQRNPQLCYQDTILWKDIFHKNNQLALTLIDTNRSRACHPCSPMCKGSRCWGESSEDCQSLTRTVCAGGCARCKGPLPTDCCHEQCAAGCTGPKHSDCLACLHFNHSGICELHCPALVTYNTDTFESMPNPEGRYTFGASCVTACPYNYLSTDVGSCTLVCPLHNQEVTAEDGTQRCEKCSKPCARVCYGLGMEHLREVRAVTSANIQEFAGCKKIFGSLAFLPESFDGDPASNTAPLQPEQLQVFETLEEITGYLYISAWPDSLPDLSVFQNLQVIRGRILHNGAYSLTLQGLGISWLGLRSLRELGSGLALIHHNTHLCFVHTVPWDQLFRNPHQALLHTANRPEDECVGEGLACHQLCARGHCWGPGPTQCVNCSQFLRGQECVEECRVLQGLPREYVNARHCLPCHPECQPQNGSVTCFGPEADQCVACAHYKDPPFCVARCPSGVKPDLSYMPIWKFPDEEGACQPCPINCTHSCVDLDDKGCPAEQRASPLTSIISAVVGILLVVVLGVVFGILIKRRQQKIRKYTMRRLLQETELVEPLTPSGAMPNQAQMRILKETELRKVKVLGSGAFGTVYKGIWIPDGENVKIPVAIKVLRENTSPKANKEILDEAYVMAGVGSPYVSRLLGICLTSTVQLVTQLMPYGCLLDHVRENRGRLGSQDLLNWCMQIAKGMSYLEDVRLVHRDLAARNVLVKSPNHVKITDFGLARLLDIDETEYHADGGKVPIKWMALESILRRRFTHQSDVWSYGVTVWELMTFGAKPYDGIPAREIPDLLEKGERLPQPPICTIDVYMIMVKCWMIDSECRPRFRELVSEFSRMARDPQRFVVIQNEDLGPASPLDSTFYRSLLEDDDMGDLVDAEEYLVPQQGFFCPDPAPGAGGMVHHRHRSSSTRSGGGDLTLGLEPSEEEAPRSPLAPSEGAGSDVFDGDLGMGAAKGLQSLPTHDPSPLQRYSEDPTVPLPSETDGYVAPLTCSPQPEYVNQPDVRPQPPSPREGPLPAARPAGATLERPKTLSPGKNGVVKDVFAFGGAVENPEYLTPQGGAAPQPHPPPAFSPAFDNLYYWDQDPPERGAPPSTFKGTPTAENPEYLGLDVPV
Procedure: (§1) A selection of compounds of the present invention were tested for inhibitory activity against EGFR and ErbB2 kinases in autophosphorylation assays.
(§2) The method measures the ability of the isolated enzyme to catalyse the transfer of the gamma-phosphate from ATP onto the tyrosine residue of a biotinylated synthetic peptide referenced “Peptide C” in Brignola, P. S., et al, (2002) J. Biol. Chem. 277(2):1576-1585. The extent of tyrosine phosphorylation was measured using an anti-phosphotyrosine antibody, and quantified by homogenous time-resolved fluorescence (HTRF).
(§3) Reactions were performed in black 384-well polystyrene flat-bottom plates in a final volume of 20 ul. Assays were performed by adding 10 μl of each of the following solutions, substrate Mix and enzyme mix: The Substrate mix contained 100 mM 3-[N-morpholino]propanesulfonic acid (MOPS) (pH 7.5), 2 mM MnCl2, 20 μM ATP, 0.01% Tween-20, 0.1 mg/mL (BSA), 0.8 uM peptide substrate, and 1 mM dithiothreitol. The enzyme mix contained 100 mM MOPS (pH7.5); 0.01% Tween-20; 0.1 mg/mL BSA, and either 0.8 nM EGFR, 10 nM ErbB2, or 1 nM ErbB4
(§4) The enzyme mix was added to the compound plates and the plates were incubated at 20° C. for 1 hour. The reactions were allowed to proceed for 90 minutes at 20° C. The reactions were then terminated by the addition of 20 μl 100 mM EDTA to each well. 40 μl/well of HTRF detection mix were added to the assay plates. The final concentrations of the detection reagents were: 100 mM HEPES (pH7.5), 0.1 mg/mL BSA, 15 nM streptavidin-labeled allophycocyanin (PerkinElmer), and 1 nM europium-labeled anti-phosphotyrosine antibody (PerkinElmer). Assay plates were left unsealed and were counted in a Wallac Multilabel Counter 1420 (PerkinElmer).
(§5) Compounds under analysis were dissolved in Me2SO to 1.0 mM and serially diluted 1 to 3 with Me2SO through twelve dilutions. 1 μl of each concentration was transferred to the corresponding well of an assay plate. This creates a final compound concentration range from 0.00027 to 47.6 μM.
(§6) The data for dose responses were plotted as % Inhibition calculated with the data reduction formula 100*(1−(U1−C2)/(C1−C2)) versus concentration of compound where U is the unknown value, C1 is the average control value obtained for 4.76% DMSO, and C2 is the average control value obtained for 0.035 M EDTA. Data were fitted with a curve described by:
(§7) where Vmax is the upper asymptote, Y2 is the Y intercept, and K is the IC50. The results for each compound were recorded as pIC50s, calculated as follows: […]
(§8) In the following table: • “+” indicates no pIC50 measurement greater than 6 against EGFR or ErbB2, • “++” indicates at least one pIC50 measurement greater than 6 against EGFR or ErbB2 but no measurement greater than pIC50 of 7; and • “+++” indicates at least one pIC50 measurement of greater than 7 against EGFR or ErbB2.

[5] = target: EGFR (Homo sapiens, UniProt P00533); experiment: EGFR kinase autophosphorylation assay (peptide phosphorylation, HTRF); format: biochemical; settings: 0.8 nM EGFR, class by pIC50
Sequence of EGFR (P00533 25-1210): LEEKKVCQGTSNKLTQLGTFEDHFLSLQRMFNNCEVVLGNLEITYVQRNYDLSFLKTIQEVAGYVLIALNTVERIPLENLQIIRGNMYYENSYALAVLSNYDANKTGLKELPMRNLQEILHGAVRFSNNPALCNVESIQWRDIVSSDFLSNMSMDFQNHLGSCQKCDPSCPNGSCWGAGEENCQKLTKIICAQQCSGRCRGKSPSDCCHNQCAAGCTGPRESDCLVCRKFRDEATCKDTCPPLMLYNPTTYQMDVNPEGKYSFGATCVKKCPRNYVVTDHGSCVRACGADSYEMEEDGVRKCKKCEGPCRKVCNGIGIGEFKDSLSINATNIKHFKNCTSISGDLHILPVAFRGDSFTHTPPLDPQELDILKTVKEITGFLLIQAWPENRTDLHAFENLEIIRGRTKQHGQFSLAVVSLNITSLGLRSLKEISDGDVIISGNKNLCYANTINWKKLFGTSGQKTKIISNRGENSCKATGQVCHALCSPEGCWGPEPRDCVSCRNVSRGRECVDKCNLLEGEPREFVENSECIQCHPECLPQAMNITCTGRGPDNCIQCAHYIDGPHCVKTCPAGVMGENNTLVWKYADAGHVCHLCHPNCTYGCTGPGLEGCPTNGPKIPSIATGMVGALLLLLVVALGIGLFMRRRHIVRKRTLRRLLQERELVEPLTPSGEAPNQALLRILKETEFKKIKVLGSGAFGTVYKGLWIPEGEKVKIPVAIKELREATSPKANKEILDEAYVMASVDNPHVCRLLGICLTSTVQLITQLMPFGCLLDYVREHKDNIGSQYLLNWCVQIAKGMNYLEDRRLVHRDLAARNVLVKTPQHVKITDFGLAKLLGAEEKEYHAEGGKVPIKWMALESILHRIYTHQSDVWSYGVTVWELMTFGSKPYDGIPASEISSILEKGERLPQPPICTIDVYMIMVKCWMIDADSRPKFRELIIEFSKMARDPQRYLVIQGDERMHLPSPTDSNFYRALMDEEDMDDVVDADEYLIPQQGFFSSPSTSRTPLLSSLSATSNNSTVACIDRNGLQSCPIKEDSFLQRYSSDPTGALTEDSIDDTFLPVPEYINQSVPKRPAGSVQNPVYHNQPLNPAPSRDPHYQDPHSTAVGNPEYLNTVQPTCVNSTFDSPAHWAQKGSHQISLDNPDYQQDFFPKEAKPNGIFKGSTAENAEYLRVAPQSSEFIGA
Procedure: as §1, §2, §3, §4, §5, §6, §7, §8

[6] = test system: Colo205 tumor cells; experiment: Cell growth inhibition assay (CellTiter-Glo), Colo205; settings: Homo sapiens, COLO 205, 72 h, read-out: Activity in Colo205 Tumor Cells;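 note: growth measured via total ATP luminescence (CellTiter-Glo) as a proxy for cell number, inhibition expressed against DMSO-treated control wells, 3-day exposure at 0.2% final DMSO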
[7] = test system: A375P tumor cells; experiment: Cell growth inhibition assay (CellTiter-Glo), A375P; settings: Homo sapiens, 72 h, read-out: Activity in A375P Tumor Cells;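 note: total ATP luminescence used as proxy for cell number, serial threefold compound dilutions at 0.2% DMSO, growth inhibition expressed versus DMSO vehicle-treated wells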
[8] = test system: HT-29 tumor cells; experiment: Cell growth inhibition assay (CellTiter-Glo), HT-29; settings: Homo sapiens, HT-29, 72 h, read-out: Activity in HT-29 Tumor Cells;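 note: ATP content read by luminescence as proxy for cell number, growth inhibition versus DMSO vehicle wells, 0.2% DMSO final, nine serial threefold compound dilutions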
Procedure: Cell Growth Inhibition Assays Human colon tumor cells (Colo205) were cultured in RPMI (Mediatech 50-020-PB) containing 10% FBS and 1% penicillin-streptomycin. […] Human melanoma cancer cells (A375-F11S) were cultured in RPMI (Mediatech 50-020-PB) containing 10% FBS, 1% sodium pyruvate, and 1% penicillin-streptomycin. Human colon cancer cells (HT-29) were cultured in high glucose DMEM (Mediatech 50-013-PB) containing 10% FBS and 1% penicillin-streptomycin. Human melanoma cancer cells (SK-MEL-3) were cultured in McCoy's 5A (50-025-PB) containing 15% FBS, and 1% penicillin-streptomycin. All cell lines were maintained at 37° C. in a humidified 5% CO2, 95% air incubator.
The next day, compounds were diluted as follows: For 96-well assays, 13.5 μl of compound in DMSO were diluted using nine (9) serial 1:3 dilutions of 4.5 μl in 9 μl of DMSO. Medium (270 μl/well of RPMI with 10% FBS and 1% penicillin-streptomycin) was added to the plates. Aliquots (7 μl) were added to cells in the final assay giving a final DMSO concentration of 0.2%. For 384-well assays, 15 μl of compound in DMSO were diluted using nine (9) serial 1:3 dilutions of 5 μl in 10 μl of DMSO, followed by a further dilution of 5 μl of compound with 95 μl of medium, of which 2 μl are added to cells in the final assay giving a final DMSO concentration of 0.2%. Cells were incubated at 37° C., 5% CO2 for 3 days.
Total ATP was measured (as a surrogate estimate of cell number) using CellTiter-Glo® (Promega G7571) reagent. Briefly, plates were removed from the incubator and allowed to equilibrate to room temperature for 30 minutes. CellTiter-Glo® (25 μl or 55 μl for 384-well or 96-well assays, respectively) reagent was added to each well and plates were shaken on an orbital plate shaker for 2 minutes. Plates were incubated without shaking for a further 30 minutes and read on an LJL Analyst GT reader in luminometer mode with an integration time of 0.5 seconds per well. Percent inhibition of cell growth was calculated relative to DMSO vehicle-treated control wells.

| Structure (SMILES) | IC50 [1] [µM] | IC50 [2] [µM] | IC50 [3] [µM] | IC50 [4] [µM] | IC50 [5] [µM] | IC50 [6] [µM] | IC50 [7] [µM] | IC50 [8] [µM] |
| --- | --- | --- | --- | --- | --- | --- | --- | --- |
| CCNc1nc(-c2cc(OC)cc(OC)c2)c(-c2ccnc(Nc3ccc(N4CCN(C(C)=O)CC4)nc3)n2)s1 [Example 4, N-[6-(4-Acetyl-1-piperazinyl)-3-pyridinyl]-4-[4-[3,5-bis(methyloxy)phenyl]-2-(ethylamino)-1,3-thiazol-5-yl]-2-pyrimidinamine] | < 0.5 | < 0.5 | < 0.1 | > 1 | > 1 | < 0.5 | < 0.5 | < 0.5 |
| CCNc1nc(-c2cc(OC)cc(OC)c2)c(-c2ccnc(Nc3ccc(N4CCOCC4)c(F)c3)n2)s1 [Example 7, 4-[4-[3,5-Bis(methyloxy)phenyl]-2-(ethylamino)-1,3-thiazol-5-yl]-N-[3-fluoro-4-(4-morpholinyl)phenyl]-2-pyrimidinamine] | < 0.5 | < 0.5 | < 0.1 | > 1 | > 1 | < 0.5 | 0.5 to 5 | < 0.5 |
| CCNc1nc(-c2cc(OC)cc(OC)c2)c(-c2ccnc(Nc3ccc(OC4CCN(CCS(C)(=O)=O)CC4)c(F)c3)n2)s1 [Example 10, 4-[4-[3,5-Bis(methyloxy)phenyl]-2-(ethylamino)-1,3-thiazol-5-yl]-N-[3-fluoro-4-({1-[2-(methylsulfonyl)ethyl]-4-piperidinyl}oxy)phenyl]-2-pyrimidinamine] | < 0.5 | < 0.5 | < 0.1 | > 1 | > 1 | < 0.5 | < 0.5 | < 0.5 |
| CCNc1nc(-c2cc(C)cc(OC)c2)c(-c2ccnc(Nc3ccc(N4CCN(CCS(C)(=O)=O)CC4)c(F)c3)n2)s1 [Example 27, 4-{2-(Ethylamino)-4-[3-methyl-5-(methyloxy)phenyl]-1,3-thiazol-5-yl}-N-(3-fluoro-4-{4-[2-(methylsulfonyl)ethyl]-1-piperazinyl}phenyl)-2-pyrimidinamine] | < 0.5 | < 0.5 | < 0.1 | > 1 | > 1 | < 0.5 | < 0.5 | < 0.5 |
| CCNc1nc(-c2cc(C)cc(OC)c2)c(-c2ccnc(Nc3ccc(N4CCOCC4)c(F)c3)n2)s1 [Example 28, 4-{2-(Ethylamino)-4-[3-methyl-5-(methyloxy)phenyl]-1,3-thiazol-5-yl}-N-[3-fluoro-4-(4-morpholinyl)phenyl]-2-pyrimidinamine] | < 0.5 | < 0.5 | < 0.1 | > 1 | > 1 | < 0.5 | < 0.5 | < 0.5 |
| CCNc1nc(-c2cc(C)cc(OC)c2)c(-c2ccnc(Nc3ccc(N4CCN(C(C)=O)CC4)nc3)n2)o1 [Example 70, N-[6-(4-Acetyl-1-piperazinyl)-3-pyridinyl]-4-{2-(ethylamino)-4-[3-methyl-5-(methyloxy)phenyl]-1,3-oxazol-5-yl}-2-pyrimidinamine] |  | < 0.5 |  | > 1 | > 1 |  | < 0.5 | < 0.5 |
| COc1cc(-c2nc(N3CCCC3)sc2-c2ccnc(Nc3ccc(OCCN4CCCC4)c(F)c3)n2)ccc1Cl [Example 78, 4-[4-[4-Chloro-3-(methyloxy)phenyl]-2-(1-pyrrolidinyl)-1,3-thiazol-5-yl]-N-(3-fluoro-4-{[2-(1-pyrrolidinyl)ethyl]oxy}phenyl)-2-pyrimidinamine] | 0.5 to 5 |  | < 0.1 | 0.1 to 1 | 0.1 to 1 | 0.5 to 5 |  |  |
| COc1cc(C)cc(-c2nc(C(C)C)sc2-c2ccnc(Nc3ccc(N4CCN5CCCCC5C4)c(F)c3)n2)c1 (stereo not drawn) [Example 113] | 0.5 to 5 |  | < 0.1 | > 1 | > 1 | 0.5 to 5 |  |  |
| CCNc1nc(-c2cc(OC)cc(OC)c2)c(-c2ccnc(Nc3ccc(N4CCN5CCOC[C@H]5C4)nc3)n2)o1 [Example 135] | > 5 |  | < 0.1 | > 1 | > 1 | 0.5 to 5 |  |  |
